In patent publication US20220289794A1, “SYNTHETIC ANTIMICROBIAL PEPTIDES” (priority 2019, published 2022):
In brackets after ≈: the same amount, converted by molar mass. Like-named read-outs stand apart in the source and are kept apart here. Positions of bridges follow the written chain, without caps; N, C: chain ends. Non-standard residues stand in square brackets, D forms with d. Residues, ends and D or L forms follow the SMILES beside them. 2Nal = N[C@@H](Cc1ccc2ccccc2c1)C(=O)O

Key:
[1] = system: Pseudomonas aeruginosa (ATCC 27883); conditions: ATCC 27883
[2] = system: Methicillin-resistant Staphylococcus aureus MRSA (ATCC BAA-1556); conditions: ATCC BAA-1556
[3] = system: Escherichia coli (ATCC 25922); conditions: ATCC 25922
[4] = system: Klebsiella pneumoniae (ATCC BAA-1705); conditions: ATCC BAA-1705
[5] = system: Escherichia coli (ATCC 25922); type: cell-based
Procedure: (§1) All bacteria pathogens tested clinically reported multi-drug resistant strains. The antibacterial activity was tested against Gram-negative strains namely; Pseudomonas aeruginosa (PSA), Klebsiella pneumoniae (KPC), Escherichia coli (E. coli) and Gram-positive Methicillin-resistant Staphylococcus aureus (MRSA). The minimum inhibitory concentration (MIC) is the lowest concentration of the antibiotic that inhibits microbial growths. MIC is determined by visual inspection or use of spectrophotometer plate reader to determine media turbidity. On the other hand, the minimum bactericidal concentration (MBC) is the lowest concentration that kills […] of bacterial growth. Cytotoxicity of peptides in the hepatic cell line, human skin fibroblast cell line, heart/myocardium cells, and human lung fibroblast cells is shown in FIGS. 36-46). […] (IFX-315)-Au-NP with antibiotics are shown in FIGS. 49-58 when the gold nanoparticles are formed by the peptide followed by addition of the antibiotic. […] (IFX-301) with antibiotics (1:1 ratio) first and then used in the synthesis of Au-NP in antibacterial activities is shown in FIGS. 59-68.
(§2) The MBC is identified by determining the lowest concentration of antibacterial agent that reduces the viability (concentration of peptides necessary to achieve a bactericidal effect) of the initial bacterial inoculum by ≥99.9%.

[6] = system: Pseudomonas aeruginosa (ATCC 27883); type: cell-based; conditions: ATCC 27883
Procedure: as §1, §2

[7] = system: Methicillin-resistant Staphylococcus aureus MRSA (ATCC BAA-1556); type: cell-based
Procedure: as §1, §2

[8] = system: Klebsiella pneumoniae (ATCC BAA-1705); type: cell-based
Procedure: as §1, §2

[9] = system: Methicillin-resistant Staphylococcus aureus MRSA (ATCC BAA-1556); conditions: ATCC BAA-1556; remark: listed apart in the source
[10] = system: Escherichia coli (E. Coli, ATCC 25922); conditions: ATCC 25922
MRSA (ATCC BAA-1556) = conditions: Table 26, MRSA (ATCC BAA-1556)
[11] = system: Klebsiella pneumoniae (KPC, ATCC BAA-1705); conditions: ATCC BAA-1705
[12] = system: Pseudomonas aeruginosa (PSA, ATCC 27883); conditions: ATCC 27883
[13] = system: Klebsiella pneumoniae (KPC, ATCC BAA-1705); conditions: Table 26, Klebsiella pneumoniae (ATCC BAA-1705)
[14] = system: Escherichia coli (E. Coli, ATCC 25922); conditions: Table 26, Escherichia coli (ATCC 25922)
[15] = system: Pseudomonas aeruginosa (PSA, ATCC 27883); experiment: Synergy checkerboard assay (FIC index); type: cell-based; conditions: Table 26, Pseudomonas aeruginosa (ATCC 27883)
human red blood cells = system: human red blood cells; set-up: unit not given beside the values
[16] = type: cell-based; conditions: Escherichia coli (ATCC 25922)
[17] = peptide in combination with antibiotics

Compound	PSA (ATCC 27883 MIC) [1] [µg/mL]	MRSA (ATCC BAA-1556) MIC [2] [µg/mL]	E. coli (ATCC 25922) MIC [3] [µg/mL]	KPC (ATCC BAA-1705) MIC [4] [µg/mL]	E. coli (ATCC 25922) MBC [5] [µg/mL]	PSA (ATCC 27883) MBC [6] [µg/mL]	MRSA (ATCC BAA-1556) MBC [7] [µg/mL]	KPC (ATCC BAA-1705) MBC [8] [µg/mL]	other results
N=C(N)NCCC[C@@H]1NC(=O)[C@H](CS)NC(=O)[C@H](Cc2c[nH]c3ccccc23)NC(=O)[C@H](Cc2c[nH]c3ccccc23)NC(=O)[C@H](Cc2c[nH]c3ccccc23)NC(=O)[C@H](Cc2c[nH]c3ccccc23)NC(=O)[C@H](CS)NC(=O)[C@H](CCCNC(=N)N)NC(=O)[C@H](CCCNC(=N)N)NC(=O)[C@H](CCCNC(=N)N)NC1=O [IFX-329] (cyclo(RRRCWWWWCR))	128	8	32	32	64	128	32	32	
N=C(N)NCCC[C@@H]1NC(=O)[C@H](CCCNC(=N)N)NC(=O)[C@H](CCCNC(=N)N)NC(=O)[C@H](CCCNC(=N)N)NC(=O)[C@@H](N)CSSC[C@@H](C(=O)O)NC(=O)[C@H](Cc2c[nH]c3ccccc23)NC(=O)[C@H](Cc2c[nH]c3ccccc23)NC(=O)[C@H](Cc2c[nH]c3ccccc23)NC(=O)[C@H](Cc2c[nH]c3ccccc23)NC1=O [IFX-327] (H-CRRRRWWWWC-OH; disulfide 1-10)	512	32	256	256	512	512	64	512	
N=C(N)NCCC[C@@H]1NC(=O)[C@H](CCCNC(=N)N)NC(=O)[C@H](CCCNC(=N)N)NC(=O)[C@@H]2CSSC[C@H](NC(=O)[C@H](CCCNC(=N)N)NC1=O)C(=O)N[C@@H](Cc1c[nH]c3ccccc13)C(=O)N[C@@H](Cc1c[nH]c3ccccc13)C(=O)N[C@@H](Cc1c[nH]c3ccccc13)C(=O)N[C@@H](Cc1c[nH]c3ccccc13)C(=O)N2 [IFX-330] (cyclo(RRRCWWWWCR); disulfide 4-9)	128	8	32	32	64	256	32	128	
N=C(N)NCCC[C@@H]1NC(=O)[C@H](CCCNC(=N)N)NC(=O)[C@H](CCCNC(=N)N)NC(=O)[C@H](CCCCN)NC(=O)[C@H](Cc2c[nH]c3ccccc23)NC(=O)[C@H](Cc2c[nH]c3ccccc23)NC(=O)[C@H](Cc2c[nH]c3ccccc23)NC(=O)[C@H](Cc2c[nH]c3ccccc23)NC(=O)[C@H](CCCNC(=N)N)NC(=O)[C@H](CCCNC(=N)N)NC1=O [IFX-315, [R5W4K]] (cyclo(RRRRRWWWWK))									MIC P. aeruginosa ATCC 27883 [1]: 16 µg/mL (≈ 9.67 µM); MRSA (ATCC BAA-1556) MIC [9]: 4 µg/mL; Escherichia coli (ATCC 25922) MIC [10]: 16 µg/mL; MIC (peptide) (MRSA (ATCC BAA-1556); peptide alone): MIC = 8 ug/ml; FIC (peptide) (MRSA (ATCC BAA-1556); [17]): FIC = 2 ug/ml; MIC MRSA ATCC BAA-1556 [2]: 4 µg/mL (≈ 2.42 µM); MIC E. coli ATCC 25922 [3]: 16 µg/mL (≈ 9.67 µM); Klebsiella pneumoniae (ATCC BAA-1705) MIC [11]: 32 µg/mL; Pseudomonas aeruginosa (ATCC 27883) MIC [12]: 16 µg/mL; MIC (peptide) ([13]; peptide alone): MIC = 64 ug/ml; FIC (peptide) [13, 17]: FIC = 16 ug/ml; MIC K. pneumoniae (ATCC BAA-1705) [4]: 32 µg/mL (≈ 19.3 µM); MIC (peptide) ([14]; peptide alone): MIC = 16 ug/ml; FIC (peptide) [14, 17]: FIC = 4 ug/ml; MIC (peptide) ([15]; peptide alone): MIC = 16 ug/ml; FIC (peptide) [15, 17]: FIC = 4 ug/ml
N=C(N)NCCC[C@@H]1NC(=O)[C@H](CCCNC(=N)N)NC(=O)[C@H](CCCNC(=N)N)NC(=O)[C@H](Cc2c[nH]c3ccccc23)NC(=O)[C@H](Cc2ccc3ccccc3c2)NC(=O)[C@H](Cc2ccc3ccccc3c2)NC(=O)[C@H](CCCNC(=N)N)NC1=O [IFX-031, c[Arg-Arg-Arg-Arg-NaI-NaI-Trp]] (cyclo(RRRR[2Nal][2Nal]W))									MRSA (ATCC BAA-1556) MIC [9]: 2 µg/mL; Escherichia coli (ATCC 25922) MIC [10]: 16 µg/mL; MIC MRSA ATCC BAA-1556 [2]: 1.5 µg/mL (≈ 1.24 µM); Klebsiella pneumoniae (ATCC BAA-1705) MIC [11]: 32 µg/mL; Pseudomonas aeruginosa (ATCC 27883) MIC [12]: 16 µg/mL; HC50 (human red blood cells): 350
Polymyxin B									MIC, MgCl2 ([16]; MH broth + 1 mM MgCl2): 1.5 µg/mL; MIC, CaCl2 ([16]; MH broth + 2 mM CaCl2): 0.7 µg/mL; MIC, NH4Cl ([16]; MH broth + 6 mM NH4Cl): 0.7 µg/mL; MIC, NaCl ([16]; MH broth + 150 mM NaCl): 0.7 µg/mL; MIC, FBS ([16]; MH broth + FBS (25%)): 0.7 µg/mL; MIC, KCl ([16]; MH broth + […] KCl): 0.7 µg/mL; MIC, MH Media ([16]; MH broth, no supplement): 0.7 µg/mL

Continued, in another order:

PSA (ATCC 27883 MIC) [1] [µg/mL]	MRSA (ATCC BAA-1556) MIC [2] [µg/mL]	E. coli (ATCC 25922) MIC [3] [µg/mL]	KPC (ATCC BAA-1705) MIC [4] [µg/mL]	Compound	E. coli (ATCC 25922) MBC [5] [µg/mL]	PSA (ATCC 27883) MBC [6] [µg/mL]	MRSA (ATCC BAA-1556) MBC [7] [µg/mL]	KPC (ATCC BAA-1705) MBC [8] [µg/mL]	other results
128	16	16	32	N=C(N)NCCC[C@H](NC(=O)[C@H](CCCNC(=N)N)NC(=O)[C@H](CCCNC(=N)N)NC(=O)[C@@H](N)CCCNC(=N)N)C(=O)N[C@H]1CSSC[C@@H](C(=O)O)NC(=O)[C@H](Cc2c[nH]c3ccccc23)NC(=O)[C@H](Cc2c[nH]c3ccccc23)NC(=O)[C@H](Cc2c[nH]c3ccccc23)NC(=O)[C@H](Cc2c[nH]c3ccccc23)NC1=O [IFX-333] (H-RRRRCWWWWC-OH; disulfide 5-10)	32	128	32	64	
128	16	32	64	N=C(N)NCCC[C@H](NC(=O)[C@H](CCCNC(=N)N)NC(=O)[C@H](CCCNC(=N)N)NC(=O)[C@@H](N)CCCNC(=N)N)C(=O)N[C@@H](CS)C(=O)N[C@@H](Cc1c[nH]c2ccccc12)C(=O)N[C@@H](Cc1c[nH]c2ccccc12)C(=O)N[C@@H](Cc1c[nH]c2ccccc12)C(=O)N[C@@H](Cc1c[nH]c2ccccc12)C(=O)N[C@@H](CS)C(=O)O [IFX-331] (H-RRRRCWWWWC-OH)	32	265	32	128	
512	64	256	16	N=C(N)NCCC[C@H](NC(=O)[C@H](CCCNC(=N)N)NC(=O)[C@H](CCCNC(=N)N)NC(=O)[C@H](CCCNC(=N)N)NC(=O)[C@@H](N)CS)C(=O)N[C@@H](Cc1c[nH]c2ccccc12)C(=O)N[C@@H](Cc1c[nH]c2ccccc12)C(=O)N[C@@H](Cc1c[nH]c2ccccc12)C(=O)N[C@@H](Cc1c[nH]c2ccccc12)C(=O)N[C@@H](CS)C(=O)O [IFX-328] (H-CRRRRWWWWC-OH)	512	512	128	32	
